Results published in PubChem BioAssay (NCI).
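Growth conditions: 96-well plates. Treatment: test compound, 48 hours, 5 concentrations. Analysis: linear interpolation between bracketing concentrations; unreached endpoints set to highest concentration. GI50 is the concentration that inhibits growth by half. TGI: concentration producing complete growth inhibition.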

What was measured:
Test in all cases: DTP human tumour cell line panel, 48 h
[1] = system: 786-0 renal
[2] = system: A498 renal
[3] = system: A549 NSCLC
[4] = system: ACHN renal
[5] = system: BT-549 breast
[6] = system: CAKI-1 renal
[7] = system: CCRF-CEM leukemia
[8] = system: COLO 205 colon
[9] = system: DU-145 prostate
[10] = system: EKVX NSCLC
[11] = system: HCC-2998 colon
[12] = system: HCT-116 colon
[13] = system: HCT-15 colon
[14] = system: HL-60(TB) leukemia
[15] = system: HOP-62 NSCLC
[16] = system: HOP-92 NSCLC
[17] = system: HS 578T breast
[18] = system: HT29 colon
[19] = system: IGROV1 ovarian
[20] = system: K-562 leukemia
[21] = system: KM12 colon
[22] = system: LOX IMVI melanoma
[23] = system: M14 melanoma
[24] = system: MALME-3M melanoma
[25] = system: MCF7 breast
[26] = system: MDA-MB-231 breast
[27] = system: MDA-MB-435
[28] = system: MOLT-4 leukemia
[29] = system: NCI-H226 lung
[30] = system: NCI-H23 lung
[31] = system: NCI-H460 lung
[32] = system: NCI-H522 lung
[33] = system: NCI/ADR-RES ovarian
[34] = system: OVCAR-3 ovarian
[35] = system: OVCAR-4 ovarian
[36] = system: OVCAR-5 ovarian
[37] = system: OVCAR-8 ovarian
[38] = system: PC-3 prostate
[39] = system: RPMI-8226 leukemia
[40] = system: RXF 393 renal
[41] = system: SF-268 CNS
[42] = system: SF-295 CNS
[43] = system: SF-539 CNS
[44] = system: SK-MEL-2 melanoma
[45] = system: SK-MEL-28 melanoma
[46] = system: SK-MEL-5 melanoma
[47] = system: SK-OV-3 ovarian
[48] = system: SN12C renal
[49] = system: SNB-19 CNS
[50] = system: SNB-75 CNS
[51] = system: SR leukemia
[52] = system: SW-620 colon
[53] = system: T-47D breast
[54] = system: TK-10 renal
[55] = system: U251 CNS
[56] = system: UACC-257 melanoma
[57] = system: UACC-62 melanoma
[58] = system: UO-31 renal

CCOc1ccc(NC(=O)c2cc3ccccc3cc2O)cc1
GI50 [1]: 28.4 µM
TGI [1]: 74.5 µM
GI50 [2]: 86.4 µM
TGI [2]: > 100 µM
GI50 [3]: > 100 µM
TGI [3]: > 100 µM
GI50 [4]: 49.9 µM
TGI [4]: > 100 µM
GI50 [5]: 42 µM
TGI [5]: > 100 µM
GI50 [6]: > 100 µM
TGI [6]: > 100 µM
GI50 [7]: 17.9 µM
TGI [7]: 41.7 µM
GI50 [8]: > 100 µM
TGI [8]: > 100 µM
GI50 [9]: > 100 µM
TGI [9]: > 100 µM
GI50 [10]: > 100 µM
TGI [10]: > 100 µM
GI50 [11]: > 100 µM
TGI [11]: > 100 µM
GI50 [12]: 71.2 µM
TGI [12]: > 100 µM
GI50 [13]: > 100 µM
TGI [13]: > 100 µM
GI50 [14]: 22.3 µM
TGI [14]: > 100 µM
GI50 [15]: 27.7 µM
TGI [15]: 81.5 µM
GI50 [16]: 11.7 µM
TGI [16]: 38.5 µM
GI50 [17]: 59.8 µM
TGI [17]: > 100 µM
GI50 [18]: > 100 µM
TGI [18]: > 100 µM
GI50 [19]: 74 µM
TGI [19]: > 100 µM
GI50 [20]: 52.5 µM
TGI [20]: > 100 µM
GI50 [21]: > 100 µM
TGI [21]: > 100 µM
GI50 [22]: 58.1 µM
TGI [22]: > 100 µM
GI50 [23]: 93.4 µM
TGI [23]: > 100 µM
GI50 [24]: 39.7 µM
TGI [24]: > 100 µM
GI50 [25]: > 100 µM
TGI [25]: > 100 µM
GI50 [26]: 53.8 µM
TGI [26]: > 100 µM
GI50 [27]: > 100 µM
TGI [27]: > 100 µM
GI50 [28]: > 100 µM
TGI [28]: > 100 µM
GI50 [29]: 64.3 µM
TGI [29]: > 100 µM
GI50 [30]: 45.9 µM
TGI [30]: > 100 µM
GI50 [31]: > 100 µM
TGI [31]: > 100 µM
GI50 [32]: 59.1 µM
TGI [32]: > 100 µM
GI50 [33]: 51.3 µM
TGI [33]: > 100 µM
GI50 [34]: > 100 µM
TGI [34]: > 100 µM
GI50 [35]: > 100 µM
TGI [35]: > 100 µM
GI50 [36]: > 100 µM
TGI [36]: > 100 µM
GI50 [37]: 47.8 µM
TGI [37]: > 100 µM
GI50 [38]: > 100 µM
TGI [38]: > 100 µM
GI50 [39]: 38.9 µM
TGI [39]: > 100 µM
GI50 [40]: 19 µM
TGI [40]: 40.2 µM
GI50 [41]: 64.8 µM
TGI [41]: > 100 µM
GI50 [42]: 34.6 µM
TGI [42]: > 100 µM
GI50 [43]: 33.2 µM
TGI [43]: > 100 µM
GI50 [44]: 76.7 µM
TGI [44]: > 100 µM
GI50 [45]: > 100 µM
TGI [45]: > 100 µM
GI50 [46]: > 100 µM
TGI [46]: > 100 µM
GI50 [47]: 27.8 µM
TGI [47]: > 100 µM
GI50 [48]: > 100 µM
TGI [48]: > 100 µM
GI50 [49]: 41.2 µM
TGI [49]: > 100 µM
GI50 [50]: 34.9 µM
TGI [50]: > 100 µM
GI50 [51]: 22.8 µM
TGI [51]: > 100 µM
GI50 [52]: > 100 µM
TGI [52]: > 100 µM
GI50 [53]: > 100 µM
TGI [53]: > 100 µM
GI50 [54]: 74.8 µM
TGI [54]: > 100 µM
GI50 [55]: 45.9 µM
TGI [55]: > 100 µM
GI50 [56]: > 100 µM
TGI [56]: > 100 µM
GI50 [57]: 57.4 µM
TGI [57]: > 100 µM
GI50 [58]: 49.3 µM
TGI [58]: > 100 µM
